The values that follow come from patent US7495027B2, “3-aryl-4-hydroxyfuranone compounds and the human and animal health use thereof” (Wyeth, priority 2003, dated 2009).

≈ marks a conversion by molar mass, not a printed value. A value given as a limit tells only on which side of the number the result lay.

The first assay deals with T1, S. aureus UDP-N-acetylglucosamine enolpyruvoyl transferase, MurA (Staphylococcus aureus, UniProt P84058).
T1 sequence (P84058 1-421): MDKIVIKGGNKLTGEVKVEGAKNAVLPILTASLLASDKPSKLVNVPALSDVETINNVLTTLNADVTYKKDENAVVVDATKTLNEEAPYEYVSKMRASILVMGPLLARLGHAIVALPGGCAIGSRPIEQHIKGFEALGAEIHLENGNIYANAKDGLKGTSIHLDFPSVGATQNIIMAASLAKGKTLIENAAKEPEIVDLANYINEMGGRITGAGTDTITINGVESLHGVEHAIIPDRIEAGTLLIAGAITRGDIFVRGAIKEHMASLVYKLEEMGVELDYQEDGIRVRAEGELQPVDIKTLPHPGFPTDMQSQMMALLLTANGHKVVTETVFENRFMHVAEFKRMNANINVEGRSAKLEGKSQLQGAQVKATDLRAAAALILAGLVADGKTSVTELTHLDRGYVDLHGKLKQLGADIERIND
The assay can be described thus: Inhibitory activity against MurA (S. aureus). It counts as biochemical. The note with it: (S) S. aureus enzyme. The procedure, abridged: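 Test compound in DMSO/water was pre-incubated 10 min at 37 °C with MurA in 50 mM Tris/HCl pH 8.0, 5 mM DTT, 20% glycerol. Assay buffer was then added and OD0 read at 340 nm; after 1 h at 37 °C, a malachite green/ammonium molybdate stop solution was added and, after 30 min colour development, OD1 read at 660 nm.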
Usually IC50 stands for the concentration needed to halve the response being measured. Low readings indicate higher potency, high ones lower potency. `O=C1O/C(=C\c2cccc(-c3cc(Cl)cc(Cl)c3)c2)C(O)=C1c1cc(Cl)cc(Cl)c1` [Example 136]: the midpoint of inhibition, the IC50, lay at 2.09 µM.
`O=C1O/C(=C\c2ccccc2-c2ccc(Cl)cc2)C(O)=C1c1ccc(Cl)cc1` [Example 137] had an IC50 of 31.8 µM.
Same read-out and setting: the figure for `O=C1O/C(=C\c2ccc(Cl)cc2)C(O)=C1c1ccc(-c2ccccc2)c(F)c1` [Example 138] is 17.8 µM; for `O=C1O/C(=C\c2ccccc2-c2cccc(Cl)c2)C(O)=C1c1cccc(Cl)c1` [Example 140] it is 26.9 µM.
On the same count and under the same terms, the figure for `O=C1O/C(=C\c2ccccc2-c2ccc(Cl)c(Cl)c2)C(O)=C1c1ccc(Cl)c(Cl)c1` [Example 141] is 6.27 µM.
For `O=C1O/C(=C\c2cc(C(F)(F)F)ccc2Cl)C(O)=C1c1ccc(N2CCOCC2)c(F)c1` [Example 142], the “MurA IC50” value was >25 (S) μg/mL.
Take `O=C1O/C(=C\c2ccc(-c3ccccc3)cc2)C(O)=C1c1csc2ccccc12` [Example 143]: the IC50 is greater than 63.1 µM.
On the same count and under the same terms, the figure for `O=C1O/C(=C\c2ccc(-c3ccccc3)cc2)C(O)=C1c1cccs1` [Example 144] is greater than 72.2 µM.

A further assay deals with enterococci. The experiment in a line: Minimum inhibitory concentration, microdilution broth method, enterococci. It counts as cell-based. The note with it: E. faecalis GC 2242; Mueller-Hinton broth, 18-22 hours at 35° C. The method, boiled down: (§1)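 Organisms, including methicillin-, penicillin- and/or vancomycin-resistant clinical isolates, tested by NCCLS M7-A5 microdilution. Medium: Mueller-Hinton broth for staphylococci and enterococci, supplemented with 5% lysed horse blood for streptococci.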
Regarding `O=C1O/C(=C\c2cc(C(F)(F)F)ccc2Cl)C(O)=C1c1ccc(N2CCOCC2)c(F)c1` [Example 142], the “MIC E. faecalis GC 2242” value is greater than 128 µg/mL.

Staying with this assay, now noted: E. faecalis GC 4555; Mueller-Hinton broth, 18-22 hours at 35° C.
As for `O=C1O/C(=C\c2cc(C(F)(F)F)ccc2Cl)C(O)=C1c1ccc(N2CCOCC2)c(F)c1` [Example 142], the “MIC E. faecalis GC 4555” value is greater than 128 µg/mL.

The same assay, now with this note: Enterococcus faecalis, E. faecalis GC 2242; Mueller-Hinton broth, 18-22 hours at 35° C.; read-out: MIC E. faecalis GC 2242.
What is called MIC is the least concentration at which growth counts as inhibited. As to `O=C1O/C(=C\c2cccc(-c3cc(Cl)cc(Cl)c3)c2)C(O)=C1c1cc(Cl)cc(Cl)c1` [Example 136], the MIC was 0.5 µg/mL (≈ 1.05 µM).
Same read-out and setting: the figure for `O=C1O/C(=C\c2ccccc2-c2ccc(Cl)cc2)C(O)=C1c1ccc(Cl)cc1` [Example 137] is 4 µg/mL (≈ 9.77 µM); for `O=C1O/C(=C\c2ccc(Cl)cc2)C(O)=C1c1ccc(-c2ccccc2)c(F)c1` [Example 138] it is 4 µg/mL (≈ 10.2 µM).
On the same count and under the same terms, the figure for `O=C1O/C(=C\c2ccccc2-c2cccc(Cl)c2)C(O)=C1c1cccc(Cl)c1` [Example 140] is 4 µg/mL (≈ 9.77 µM).
`O=C1O/C(=C\c2ccccc2-c2ccc(Cl)c(Cl)c2)C(O)=C1c1ccc(Cl)c(Cl)c1` [Example 141]: the MIC is 0.5 µg/mL (≈ 1.05 µM).
Same read-out and setting: under `O=C1O/C(=C\c2ccc(-c3ccccc3)cc2)C(O)=C1c1csc2ccccc12` [Example 143] stands 4 µg/mL (≈ 10.1 µM); under `O=C1O/C(=C\c2ccc(-c3ccccc3)cc2)C(O)=C1c1cccs1` [Example 144], 32 µg/mL (≈ 92.4 µM).

The assay is the same for the next values; noted with them: Enterococcus faecalis, E. faecalis GC 4555; Mueller-Hinton broth, 18-22 hours at 35° C.; read-out: MIC E. faecalis GC 4555.
`O=C1O/C(=C\c2cccc(-c3cc(Cl)cc(Cl)c3)c2)C(O)=C1c1cc(Cl)cc(Cl)c1` [Example 136]: the MIC was 1 µg/mL (≈ 2.09 µM).
As to `O=C1O/C(=C\c2ccccc2-c2ccc(Cl)cc2)C(O)=C1c1ccc(Cl)cc1` [Example 137], the MIC came to 4 µg/mL (≈ 9.77 µM).
The same measure, in the same setting: under `O=C1O/C(=C\c2ccc(Cl)cc2)C(O)=C1c1ccc(-c2ccccc2)c(F)c1` [Example 138] stands 8 µg/mL (≈ 20.4 µM); under `O=C1O/C(=C\c2ccccc2-c2cccc(Cl)c2)C(O)=C1c1cccc(Cl)c1` [Example 140], 4 µg/mL (≈ 9.77 µM); under `O=C1O/C(=C\c2ccccc2-c2ccc(Cl)c(Cl)c2)C(O)=C1c1ccc(Cl)c(Cl)c1` [Example 141], 1 µg/mL (≈ 2.09 µM).
With `O=C1O/C(=C\c2ccc(-c3ccccc3)cc2)C(O)=C1c1csc2ccccc12` [Example 143], the MIC was 32 µg/mL (≈ 80.7 µM).
For `O=C1O/C(=C\c2ccc(-c3ccccc3)cc2)C(O)=C1c1cccs1` [Example 144], the MIC was greater than 128 µg/mL.

The next assay concerns staphylococci. The experiment in a line: Minimum inhibitory concentration, microdilution broth method, staphylococci. It counts as cell-based. The settings on record: S. aureus GC 1131; Mueller-Hinton broth, 18-22 hours at 35° C. The procedure, abridged:
as §1
On the technique in general: Dilution methods test growth across graded concentrations, often in twofold steps.
For the compound `O=C1O/C(=C\c2cc(C(F)(F)F)ccc2Cl)C(O)=C1c1ccc(N2CCOCC2)c(F)c1` [Example 142], the “MIC S. aureus GC 1131” value amounted to 64 µg/mL (≈ 136 µM).

The assay is the same for the next values; noted with them: S. aureus GC 4543; Mueller-Hinton broth, 18-22 hours at 35° C.
For the compound `O=C1O/C(=C\c2cc(C(F)(F)F)ccc2Cl)C(O)=C1c1ccc(N2CCOCC2)c(F)c1` [Example 142], the “MIC S. aureus GC 4543” value was greater than 128 µg/mL.

The same assay, now with this note: Staphylococcus aureus, S. aureus GC 1131; Mueller-Hinton broth, 18-22 hours at 35° C.; read-out: MIC S. aureus GC 1131.
Consider `O=C1O/C(=C\c2cccc(-c3cc(Cl)cc(Cl)c3)c2)C(O)=C1c1cc(Cl)cc(Cl)c1` [Example 136], for which the MIC was 0.25 µg/mL (≈ 0.523 µM).
In the case of `O=C1O/C(=C\c2ccccc2-c2ccc(Cl)cc2)C(O)=C1c1ccc(Cl)cc1` [Example 137], the MIC is 8 µg/mL (≈ 19.5 µM).
On the same count and under the same terms, under `O=C1O/C(=C\c2ccc(Cl)cc2)C(O)=C1c1ccc(-c2ccccc2)c(F)c1` [Example 138] stands 4 µg/mL (≈ 10.2 µM); under `O=C1O/C(=C\c2ccccc2-c2cccc(Cl)c2)C(O)=C1c1cccc(Cl)c1` [Example 140], 1 µg/mL (≈ 2.44 µM); under `O=C1O/C(=C\c2ccccc2-c2ccc(Cl)c(Cl)c2)C(O)=C1c1ccc(Cl)c(Cl)c1` [Example 141], 0.5 µg/mL (≈ 1.05 µM).
Still for that read-out and setting: under `O=C1O/C(=C\c2ccc(-c3ccccc3)cc2)C(O)=C1c1csc2ccccc12` [Example 143] stands 8 µg/mL (≈ 20.2 µM).
`O=C1O/C(=C\c2ccc(-c3ccccc3)cc2)C(O)=C1c1cccs1` [Example 144]: the MIC was found to be 16 µg/mL (≈ 46.2 µM).

Still in this assay, the particulars now being: Staphylococcus aureus, S. aureus GC 4543; Mueller-Hinton broth, 18-22 hours at 35° C.; read-out: MIC S. aureus GC 4543.
For `O=C1O/C(=C\c2cccc(-c3cc(Cl)cc(Cl)c3)c2)C(O)=C1c1cc(Cl)cc(Cl)c1` [Example 136], the minimum inhibitory concentration (MIC) came out at 0.25 µg/mL (≈ 0.523 µM).
Still for that read-out and setting: the figure for `O=C1O/C(=C\c2ccccc2-c2ccc(Cl)cc2)C(O)=C1c1ccc(Cl)cc1` [Example 137] is 8 µg/mL (≈ 19.5 µM); for `O=C1O/C(=C\c2ccc(Cl)cc2)C(O)=C1c1ccc(-c2ccccc2)c(F)c1` [Example 138] it is 4 µg/mL (≈ 10.2 µM); for `O=C1O/C(=C\c2ccccc2-c2cccc(Cl)c2)C(O)=C1c1cccc(Cl)c1` [Example 140] it is 1 µg/mL (≈ 2.44 µM).
Turning to `O=C1O/C(=C\c2ccccc2-c2ccc(Cl)c(Cl)c2)C(O)=C1c1ccc(Cl)c(Cl)c1` [Example 141], the MIC was found to be 0.25 µg/mL (≈ 0.523 µM).
For the compound `O=C1O/C(=C\c2ccc(-c3ccccc3)cc2)C(O)=C1c1csc2ccccc12` [Example 143], the MIC was found to be 8 µg/mL (≈ 20.2 µM).
The same measure, in the same setting: under `O=C1O/C(=C\c2ccc(-c3ccccc3)cc2)C(O)=C1c1cccs1` [Example 144] stands 16 µg/mL (≈ 46.2 µM).

For a further assay, the target named is T2, S. aureus Uridine-diphosphate-N-acetylmuramoyl-L-alanine: D-glutamate liease, MurD (Staphylococcus aureus, UniProt Q2FZ92).
T2 sequence (Q2FZ92 1-449): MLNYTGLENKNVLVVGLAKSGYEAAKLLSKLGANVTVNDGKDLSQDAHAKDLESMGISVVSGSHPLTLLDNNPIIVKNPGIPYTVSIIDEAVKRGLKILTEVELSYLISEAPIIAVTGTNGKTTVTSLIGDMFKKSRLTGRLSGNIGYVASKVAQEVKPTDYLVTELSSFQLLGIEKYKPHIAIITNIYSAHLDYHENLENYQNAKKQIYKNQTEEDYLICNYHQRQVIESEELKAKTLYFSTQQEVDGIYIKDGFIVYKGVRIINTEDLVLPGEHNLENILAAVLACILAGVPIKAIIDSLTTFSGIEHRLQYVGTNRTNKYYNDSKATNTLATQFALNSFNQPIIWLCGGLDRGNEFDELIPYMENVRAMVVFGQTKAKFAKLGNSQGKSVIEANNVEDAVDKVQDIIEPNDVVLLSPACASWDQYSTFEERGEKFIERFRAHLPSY
The assay can be described thus: biochemical. The note with it: (S) S. aureus enzyme. The method, boiled down:
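MurD, which catalyses the fourth step of cell wall biosynthesis, was tested for inhibition by compounds. Compounds were made up as 10 mg/mL DMSO stocks and diluted to 100 μg/mL in 50 mM Tris/HCl, pH 8.5.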
Consider `O=C1O/C(=C\c2cccc(-c3cc(Cl)cc(Cl)c3)c2)C(O)=C1c1cc(Cl)cc(Cl)c1` [Example 136], for which the IC50 was 20.9 µM.
On the same count and under the same terms, the figure for `O=C1O/C(=C\c2ccccc2-c2ccc(Cl)cc2)C(O)=C1c1ccc(Cl)cc1` [Example 137] is 44 µM.
In turn, `O=C1O/C(=C\c2ccc(Cl)cc2)C(O)=C1c1ccc(-c2ccccc2)c(F)c1` [Example 138] gave an IC50 of 35.6 µM.
`O=C1O/C(=C\c2ccccc2-c2cccc(Cl)c2)C(O)=C1c1cccc(Cl)c1` [Example 140] showed an IC50 of 48.9 µM.
The same measure, in the same setting: under `O=C1O/C(=C\c2ccccc2-c2ccc(Cl)c(Cl)c2)C(O)=C1c1ccc(Cl)c(Cl)c1` [Example 141] stands 6.27 µM.
For the compound `O=C1O/C(=C\c2cc(C(F)(F)F)ccc2Cl)C(O)=C1c1ccc(N2CCOCC2)c(F)c1` [Example 142], the “MurD IC50” value is given as >25 (S) μg/mL.
Compound `O=C1O/C(=C\c2ccc(-c3ccccc3)cc2)C(O)=C1c1csc2ccccc12` [Example 143] gave an IC50 of 25.2 µM.
In turn, `O=C1O/C(=C\c2ccc(-c3ccccc3)cc2)C(O)=C1c1cccs1` [Example 144] had an IC50 of 57.7 µM. This IC50 is about 2.3-fold higher than that of the compound before.
